For assay [1], the target named is T1, α4β1 (Homo sapiens, UniProt P05556+P13612). The settings on record: literature (Tamraz et al.); cited from earlier work.
Assay [2] relates to oxazolone-induced contact hypersensitivity. As to conditions: 6 mg/kg, sc; mouse; cited from earlier work.
Assay [3] concerns heterotopic heart allograft. The settings on record: hyperlipidemic rabbit; cited from earlier work.
For a further assay, the target named is T2, human α4β7 (Homo sapiens, UniProt P13612+P26010).
T2 construct: expressed in transfected cells
T2 sequence (P13612 34-1032): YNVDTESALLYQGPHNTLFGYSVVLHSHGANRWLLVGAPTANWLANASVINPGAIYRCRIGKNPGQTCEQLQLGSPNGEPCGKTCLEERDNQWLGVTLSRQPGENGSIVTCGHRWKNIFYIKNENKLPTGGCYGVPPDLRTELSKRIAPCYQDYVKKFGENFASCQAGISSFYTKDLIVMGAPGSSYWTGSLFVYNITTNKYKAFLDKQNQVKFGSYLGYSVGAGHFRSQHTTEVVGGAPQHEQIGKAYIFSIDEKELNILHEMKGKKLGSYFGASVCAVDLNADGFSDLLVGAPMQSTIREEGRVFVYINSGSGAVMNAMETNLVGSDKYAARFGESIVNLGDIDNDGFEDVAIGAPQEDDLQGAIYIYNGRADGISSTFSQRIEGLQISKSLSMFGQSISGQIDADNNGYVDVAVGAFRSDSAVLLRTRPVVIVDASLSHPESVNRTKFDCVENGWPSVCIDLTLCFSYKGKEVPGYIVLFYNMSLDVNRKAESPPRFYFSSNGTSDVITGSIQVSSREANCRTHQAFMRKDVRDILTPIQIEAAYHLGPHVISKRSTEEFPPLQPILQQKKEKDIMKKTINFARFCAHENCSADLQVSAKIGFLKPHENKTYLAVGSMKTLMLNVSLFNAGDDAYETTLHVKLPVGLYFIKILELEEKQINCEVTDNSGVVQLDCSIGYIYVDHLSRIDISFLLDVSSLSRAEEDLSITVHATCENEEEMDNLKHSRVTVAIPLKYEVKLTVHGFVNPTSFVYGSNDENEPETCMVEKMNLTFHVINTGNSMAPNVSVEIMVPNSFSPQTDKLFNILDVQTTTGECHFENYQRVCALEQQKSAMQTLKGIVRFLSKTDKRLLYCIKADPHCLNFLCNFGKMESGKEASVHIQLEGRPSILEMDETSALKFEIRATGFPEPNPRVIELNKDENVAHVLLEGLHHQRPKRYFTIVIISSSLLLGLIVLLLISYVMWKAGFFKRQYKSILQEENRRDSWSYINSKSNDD
T2 sequence (P26010 20-798): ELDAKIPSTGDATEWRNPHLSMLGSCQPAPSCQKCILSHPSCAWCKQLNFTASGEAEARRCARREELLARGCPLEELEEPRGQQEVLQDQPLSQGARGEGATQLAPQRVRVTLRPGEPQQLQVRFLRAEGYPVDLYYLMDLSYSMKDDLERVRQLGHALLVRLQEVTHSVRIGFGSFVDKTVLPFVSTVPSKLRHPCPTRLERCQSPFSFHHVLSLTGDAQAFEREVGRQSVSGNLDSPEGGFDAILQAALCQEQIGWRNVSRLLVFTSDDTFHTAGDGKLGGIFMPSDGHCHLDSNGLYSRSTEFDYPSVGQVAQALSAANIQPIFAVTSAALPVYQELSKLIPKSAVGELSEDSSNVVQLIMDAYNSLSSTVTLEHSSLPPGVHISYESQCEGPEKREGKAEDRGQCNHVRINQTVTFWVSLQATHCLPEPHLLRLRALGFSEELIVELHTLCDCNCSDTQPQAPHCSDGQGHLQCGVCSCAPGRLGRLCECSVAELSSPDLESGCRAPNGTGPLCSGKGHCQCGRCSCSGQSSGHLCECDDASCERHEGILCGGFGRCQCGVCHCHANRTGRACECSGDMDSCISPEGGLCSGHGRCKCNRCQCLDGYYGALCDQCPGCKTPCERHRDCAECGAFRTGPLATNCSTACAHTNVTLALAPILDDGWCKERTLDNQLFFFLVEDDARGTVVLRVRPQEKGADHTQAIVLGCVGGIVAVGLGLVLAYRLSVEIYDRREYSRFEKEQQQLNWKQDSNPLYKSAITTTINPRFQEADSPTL
Briefly: α4β7-K562 Cell Adhesion Assay (α4β7 Mediated Adhesion/VCAM-1). The format is cell-based. On the procedure: (§1) α4β7-K562 Cell Adhesion Assay (α4β7 Mediated Adhesion/VCAM-1) Immulon 96 well plates (Dynex) were coated with 100 μL recombinant hVCAM-1 at 4.0 μg/mL in 0.05 M NaCO3 buffer pH 9.0 overnight at 4° C. (R&D System). Plates were washed 3 times in PBS with 1% BSA and blocked for 1 h @ room temperature in this buffer. PBS was removed and compounds to be tested (50 μL) were added at 2× concentration. A stable cell line of K562 cells expressing human α4β7, (50 μL at 2×10^6/mL) labeled with 5 μM Calcein AM (Molecular Probes) for 1 h at 37° C., were added to each well and allowed to adhere for 1 h at room temperature. Plates were washed 3× in PBS+1% BSA and cells were lysed for 15 minutes in 100 μL of 1 M Tris pH 8.0 with 1% SDS. The plate was read at 485 nm excitation and 530 nm emission.

For assay [4], the target named is T1, α4β1. Briefly: Ramos Cell Adhesion Assay (α4β1 Mediated Adhesion/VCAM-1). The assay is classed as cell-based. More on the design: Ramos cells, (50 μL at 2×10^6/mL) labeled with 5 μM Calcein AM; endogenous in cells; host or cells: Ramos cells. On the procedure: as §1, with “Ramos” for “α4β7-K562”, “α4β1” for “(α4β7”, “[…]” for “96”, “Systems).” for “System).”, “Ramos cells,” for “A stable cell line of K562 cells expressing human α4β7,”

For assay [5], the system named is circulating white blood cells (leukocytes). In words: Leukocytosis Procedure. The format is in vivo, Balb/c mice. The settings on record: bled 1-1.5 hours after administration. An excerpt:
Background: Leukocytosis is the increase in circulating white blood cells (leukocytes). Luekocytosis can be caused by preventing leukocyte binding to integrin counter-receptor adhesion molecules expressed on high endothelial venules. This cell adhesion occurs between immunoglobulin superfamily molecules and integrins. Relevant examples of these paired interactions include […] Adhesion Molecule-1 and αLβ2 integrin, Vascular Cell Adhesion Molecule-1 and α4β1 integrin, and Mucosal Addressin Cell Adhesion Molecule-1 and α4β7 integrin, respectively.
In this model, a compound that antagonizes these leukocyte-endothelial interactions will cause an increase in circulating leukocytes, defined as leukocytosis, as measured at 1-1.5 hours post-administration. This leukocytosis is indicative that normal lymphocyte or leukocyte emigration from the peripheral circulation was prevented. Similar emigration of cells out of the circulation into inflamed tissues is responsible for the progression and maintenance of the inflammatory state. Leukocytosis is an indication that lymphocyte and leukocyte extravasation is prevented, and is predictive of general anti-inflammatory activity.
1 week prior to being tested, 7-10 week old female Balb/c mice, n=8 per group, were bled and randomized according to leukocyte counts. One week later, the mice were administered a test compound orally or subcutaneously and then bled 1-1.5 hours after drug administration, approximately one hour after the peak blood concentration of the compound had occurred. Whole blood, 250-350 microliters, was collected from each mouse into potassium-EDTA serum collection tubes (Becton-Dickenson) and mixed to prevent clotting.
Cell counts and differential counts on the whole blood preparation were performed using an Advia 120 Hematology System (Bayer Diagnostics). Cell counts as total leukocytes and as total lympohcytes were made and compared to counts made from mice dosed with vehicle only. Data were reported as percent of vehicle control for lymphocyte counts and total leukocyte counts. Statistical analyses were performed using ANOVA with Dunnet's multiple comparison test

[6] abbreviates: K562 cells expressing human α4β7 on recombinant hVCAM-1, read-out: α4β7 IC50.
Where [7] appears, read: Ramos cells on recombinant hVCAM-1, read-out: α4β1 IC50.

Where two headings read alike, the source gives them in different places.

T1 sequence (P05556 21-798, one chain of several): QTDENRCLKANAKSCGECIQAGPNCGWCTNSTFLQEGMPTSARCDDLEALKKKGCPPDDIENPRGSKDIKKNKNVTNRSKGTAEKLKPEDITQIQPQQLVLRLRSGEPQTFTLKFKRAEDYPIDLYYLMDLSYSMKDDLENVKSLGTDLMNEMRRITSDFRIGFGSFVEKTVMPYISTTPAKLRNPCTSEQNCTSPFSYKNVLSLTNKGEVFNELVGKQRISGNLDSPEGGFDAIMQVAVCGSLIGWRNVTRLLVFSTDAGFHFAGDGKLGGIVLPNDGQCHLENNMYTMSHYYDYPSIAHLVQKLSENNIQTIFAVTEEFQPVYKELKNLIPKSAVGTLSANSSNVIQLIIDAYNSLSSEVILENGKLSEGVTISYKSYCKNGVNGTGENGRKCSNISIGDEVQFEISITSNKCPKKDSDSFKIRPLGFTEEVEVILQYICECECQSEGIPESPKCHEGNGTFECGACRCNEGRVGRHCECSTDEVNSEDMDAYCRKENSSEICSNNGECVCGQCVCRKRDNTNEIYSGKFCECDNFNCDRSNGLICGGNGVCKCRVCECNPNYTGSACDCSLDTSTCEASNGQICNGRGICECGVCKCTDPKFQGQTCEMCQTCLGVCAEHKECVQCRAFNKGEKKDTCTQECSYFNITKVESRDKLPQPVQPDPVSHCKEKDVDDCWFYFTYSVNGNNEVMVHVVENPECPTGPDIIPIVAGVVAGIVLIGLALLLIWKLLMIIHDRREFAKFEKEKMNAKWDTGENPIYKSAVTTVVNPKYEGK

Consider Phenylacetyl-Leu-Asp-Phe-D-Pro-NH2, for which the IC50 on α4β1 [1] was 2000 nM. For the same molecule, in assay [2], the “efficacy in oxazolone-induced contact hypersensitivity” value was “efficacy similar to the α4 antibody PS/2”. The “efficacy in heart allograft model” value in assay [3] was “effective”.

For the molecule `O=C(Nc1ccc(CC(NC(=O)C2C3CCC(CC3)N2C(=O)Cc2csc3ccccc23)C(=O)O)cc1)c1c(Cl)cncc1Cl` (centres unmarked) [Cpd 62], the IC50 on human α4β7 (setting [6]) is 565 nM; on α4β1 [4] (setting [7]) it was 292 nM.

For `O=C(Nc1ccc(CC(NC(=O)C2C3CCC(CC3)N2C(=O)CCc2ccccc2)C(=O)O)cc1)c1c(Cl)cncc1Cl` (centres unmarked) [Cpd 39], the IC50 on human α4β7 (setting [6]) is 7 nM; on human α4β7 (repeated in leukocytosis table, unit inferred, read-out: α4β7), 7 nM; at α4β1 [4] (setting [7]), 0.9 nM; at α4β1 [4] (repeated in leukocytosis table, unit inferred, read-out: α4β1), 0.9 nM. Further, the “Lymphocyte Counts % of Vehicle Control” value in assay [5] (3 mg/kg sc) is given as 205.2 % of Vehicle Control; in assay [5] (10 mg/kg sc), 150.3 % of Vehicle Control; in assay [5] (30 mg/kg sc) it was 253.9 % of Vehicle Control. The “Total Leukocyte Counts % of Vehicle Control” value is reported as 175.1 % of Vehicle Control in assay [5] (3 mg/kg sc), 134.3 % of Vehicle Control in assay [5] (10 mg/kg sc) and 212.2 % of Vehicle Control in assay [5] (30 mg/kg sc).

As for `COc1ccccc1CC(=O)N1C2CCC(CC2)C1C(=O)NC(Cc1ccc(NC(=O)c2c(Cl)cncc2Cl)cc1)C(=O)O` (centres unmarked) [Cpd 29], the IC50 at human α4β7 (setting [6]) was 27 nM; on α4β1 [4] (setting [7]) it was 28 nM.

Turning to `O=C(Nc1ccc(CC(NC(=O)C2C3CCC(CC3)N2C(=O)CCc2ccc(Cl)cc2)C(=O)O)cc1)c1c(Cl)cncc1Cl` (centres unmarked) [Cpd 51], the IC50 on human α4β7 (setting [6]) is 24 nM; on α4β1 [4] (setting [7]), 3 nM.

Regarding `O=C(Nc1ccc(CC(NC(=O)C2C3CCC(CC3)N2C(=O)Cc2ccsc2)C(=O)O)cc1)c1c(Cl)cncc1Cl` (mixture of isomers) [Cpd 60], the IC50 at human α4β7 (setting [6]) is 233 nM; on α4β1 [4] (setting [7]), 156 nM.

With `O=C(Nc1ccc(CC(NC(=O)C2C3CCC(CC3)N2C(=O)CCc2cc(C(F)(F)F)cc(C(F)(F)F)c2)C(=O)O)cc1)c1c(Cl)cncc1Cl` (centres unmarked) [Cpd 55], the IC50 at human α4β7 (setting [6]) is 181 nM; on α4β1 [4] (setting [7]), 72 nM.

For `CC(=Cc1ccccc1)C(=O)N1C2CCC(CC2)C1C(=O)NC(Cc1ccc(NC(=O)c2c(Cl)cncc2Cl)cc1)C(=O)O` (centres unmarked) [Cpd 40], the IC50 on human α4β7 (setting [6]) was 943 nM; at α4β1 [4] (setting [7]) it was 77 nM.

For `O=C(Nc1ccc(CC(NC(=O)C2C3CCC(CC3)N2C(=O)CCN2CCCCC2)C(=O)O)cc1)c1c(Cl)cncc1Cl` (centres unmarked) [Cpd 43], the IC50 at human α4β7 (setting [6]) is 86 nM; at α4β1 [4] (setting [7]), 5 nM.

For `O=C(Nc1ccc(CC(NC(=O)C2C3CCC(CC3)N2C(=O)C#Cc2ccccc2)C(=O)O)cc1)c1c(Cl)cncc1Cl` (centres unmarked) [Cpd 57], the IC50 is 27 nM at human α4β7 (setting [6]) and 9 nM at α4β1 [4] (setting [7]).
